Patent US20230393170A1, “IN SITU MECHANICAL CHARACTERIZATION OF A SAMPLE STRAIN” (BOARD OF REGENTS OF THE UNIVERSITY OF NEBRASKA, priority 2020, published 2023)
Entries after “also recorded” stand apart in the source; their conditions may differ.

Tested on: A431 cell pair cell-cell junction
Test: Displacement-controlled stretch test of a single cell pair treated with contractility modulators
Assay type: cell-based
Source text: To apply strain to the cell-cell junction, the test platform was placed with deposited cells under the AFM integrated with an inverted microscope. An AFM probe with a through-hole drilled at the front end using a focused ion beam (FIB) is positioned above the micropillar on Island 2 and then lowered to capture it within the through-hole. With this, displacement was applied and displacement rates were tried to investigate the mechanical behavior of the cell-cell junction with obtained stress-strain curves (as discussed below with reference to FIG. 12).
The cell pair was treated with cellular contractility modulators, RhoA Activator I. CN01, and myosin II inhibitor: blebbistatin (Bleb), to examine the impact of actomyosin activity on the mechanical behavior of the cell pair under mechanical stress. Stress-strain curves collected at 0.5% s^−1 strain rate show a clear contrast between samples treated with CN01, Bleb, and DMSO control. […] The stress-strain curves were then analyzed using the constitutive model. […] The increase (decrease) in both η and E2 by CN01 (Bleb) is consistent with the enhanced (reduced) stress fiber formation.
Zyxin staining was performed to visualize the focal adhesion points between cells and the structure. After fixing the cells (see above), the anti-zyxin antibody (Sigma) with a ratio of 1:250 with PBS was added to the sample and refrigerated for 24 hours. The solution was then removed, and the sample was washed with PBS. PBS was replaced by Goat anti-Rabbit IgG (H+L), Superclonal™ Recombinant Secondary Antibody, Alexa Fluor 647 (Thermofisher) and incubated for 1 hour at 37° C. Finally, the sample was washed with PBS and the actin and nuclei staining protocol were performed. Pharmacological treatments modulating cell contractility included 3 μM blebbistatin (Bleb) (Sigma-Aldrich) for 2 h and 1 unit/ml Rho Activator I (CN01; Cytoskeleton, Inc., Denver, CO) for 30 min.
A modified version of MATLAB digital image correlation (DIC) was used to analyze the frames from the stretch test. The first frame was considered as the reference and the rest of the frames were compared to the reference frame to calculate the displacement of each island. A region of interest with markers within the region was defined for both islands. Then, the MATLAB code calculated the markers' new coordinates with respect to the first frame, from which the displacement of the islands was calculated. The force is defined by the Island 1 displacement multiplied by its stiffness, and the stress is acquired by dividing the force by the junction cross-section (approximately 120 μm^2). The strain is then calculated as the difference between the islands' displacements divided by the cell-cell junction's initial length (approximately 20 μm).
Each stretch test was recorded with a screen recorder software (Camtasia) and the movie was divided into frames that were analyzed with a customized DIC-based program to calculate each island's movement. In this method, a region of interest is defined and, within this region, a few markers are placed. The higher the number of markers, the better the resolution of the calculated displacement is. Then, when the coordinates of these markers change, a corresponding red marker appears (FIGS. 12A and 12B). In the first frame, both initial and displaced positions of markers are completely overlapped so just red markers are shown. […] The strain is calculated by dividing the difference of both islands' displacements by the initial length […]. […]

[1] = 0.5% s^-1 strain rate, fit of stress-strain curves

In the case of `Cc1ccc2c(c1)C(=O)C1(O)CCN(c3ccccc3)C1=N2` (centres unmarked) [Bleb, blebbistatin], the “rupture of the cell-cell adhesion junction” value (0.5% s^-1 (100 nm/s) strain rate) is reported as “ruptured at the initial stages”, the “overall stress level compared with controls” value (0.5% s^-1 strain rate (100 nm/s), CN01 1 unit/ml 30 min, Bleb 3 μM 2 h, vs DMSO control) is reported as “reduces the stress accumulation; also recorded: stress level was low compared to other conditions” and the “Membrane stiffness, E1 (MSLS model fit)” value [1] is reported as “stays the same for all conditions”. For the same compound, the “elastic moduli of the intracellular components, E2 (MSLS model fit)” value [1] was “reduces them” and the “viscosity, η (MSLS model fit)” value [1] was “reduces them”.
